The values below come from paper PMC11053772, “Improved Chemical and Radiochemical Synthesis of Neuropeptide Y Y2 Receptor Antagonist N-Methyl-JNJ-31020028 and Preclinical Positron Emission Tomography Studies” (Pharmaceuticals, 2024).

The subject of series [1] is Y2 receptors. Set-up: method as in PMID 19953226. Conditions: cited from earlier work.
Series [2] can be described thus: In vivo PET/MRI biodistribution of the radiotracer in mice. Set-up: species or system C57BL/6N mice. The note with it: i.v., 30–50 min post-injection, mean ± SEM, n = 7. As for the experimental part: PET/MRI images of N-[^11C]Me-JNJ-31020028 and biodistribution studies were performed in healthy C57BL/6N mice. The radiotracer [^11C]2 injectable solutions were administered intravenously to the mice, previously anaesthetised, and the mice were put in the MicroPET scanner for PET imaging acquisition. The MRI acquisition was performed before injection due to the necessity of using equipment different from MicroPET.
PET/MRI Imaging. PET/MRI acquisitions were performed at the Institute for Nuclear Sciences Applied to Health (ICNAS) animal facility. During both acquisitions, the animals (n = 7) were anaesthetised using 1.5–2% isoflurane, and vital signs, such as temperature and respiratory cycle, were monitored. The radiotracer was administered intravenously (i.v.) in a total injected activity of 12.0 ± 2.9 µCi/g. Mice were placed in a MicroPET scanner based on resistive plate chamber detectors (RPC-PET). […] Quantitative imaging processing was performed using PMOD (PMOD, v 3.6; PMOD Technologies, Zürich, Switzerland, RRID: SCR_016547). […] Standardised uptake values (SUVs) were calculated as [[total positron (β+ radioactivity) concentration in the VOI (Bq/mL)]/[total positron (β+ radioactivity) injected (Bq)/weight (g)]] […] The percentage injected dose per gram (%ID/g) was calculated through Equation (2). […]

Series [3] is described as follows: Ex vivo biodistribution by gamma counting one hour after i.v. injection. The class given is in vivo, C57BL/6N mice. Conditions: mice, 1 h after i.v. injection. As for the experimental part:
The ex vivo biodistribution studies were performed one hour after the intravenous injection of the [^11C]2 injectable solution. For these studies, transcardiac perfusion with saline was performed, eliminating blood traces from the organs. […] Urinary excretion also occurred, though less radioactivity was found in the urine (84.43 ± 59.41%ID/g). The small intestine (98.64 ± 25.57%ID/g) and liver (14.33 ± 6.39%ID/g) were the organs with major uptake of the radiotracer. The high uptake in the small intestine is explained by the high density of Y2 receptors that exist in this organ, while the uptake in the liver is related to the metabolization of the tracer. Moderately low uptake was found in the stomach (3.082 ± 0.7135%ID/g), large intestine (2.18 ± 0.21%ID/g) and kidneys (1.99 ± 0.49%ID/g).
Biodistribution. In another cohort of animals (n = 5), ex vivo biodistribution (%ID/g of tissue) was performed by gamma counting through CRC®-55t well counter and CRC®-55tW radioisotope dose calibrator (Capintec, Ramsey, NJ, USA). Six regions of the brain were also isolated to characterise brain accumulation; the isolation of the specific brain regions was conducted following established protocols.

The test system of series [4] is Y2 receptor. Set-up: method as in PMID 24614224. The note with it: living pigs; cited from earlier work.
[5] abbreviates: mean ± SEM, n = 5, listed as [^11C]2.

For the compound `CCN(CC)C(=O)C(c1ccccc1)N1CCN(c2ccc(NC(=O)c3ccccc3-c3cccnc3)cc2F)CC1` (stereo not shown) [JNJ-31020028, N-(4-{4-[2-(diethylamino)-2-oxo-1-phenylethyl]piperazin1-yl}-3-fluorophenyl)-2-pyridin-3-ylbenzamide], the “Affinity and selectivity towards the Y2 receptors” value in series [1] is “high affinity and selectivity”.
With `CCN(CC)C(=O)C(c1ccccc1)N1CCN(c2ccc(N([11CH3])C(=O)c3ccccc3-c3cccnc3)cc2F)CC1` (stereo not shown) [N-[^11C]Me-JNJ-31020028], in series [2], the “Uptake in the brain (in vivo PET)” value was 0.5187 ± 0.08 %ID/g and the “Uptake in the gut (in vivo PET)” value is reported as 12.57 ± 1.27 %ID/g. Also, in series [3] (from uptake in bile), the Route of elimination entry is “mainly eliminated through the hepatobiliary system”. In addition, the “Ex vivo biodistribution, small intestine” value in series [3] (intestine wall, mean ± SEM, n = 5) is given as 98.64 ± 25.57 %ID/g. Besides, in series [3] (mean ± SEM, n = 5), the “Brain ex vivo biodistribution, amygdala” value was 0.9318 ± 0.08 %ID/g; the “Brain ex vivo biodistribution, cerebellum” value is 0.646 ± 0.10 %ID/g; the “Brain ex vivo biodistribution, hippocampus” value came to 0.8976 ± 0.09 %ID/g; the “Brain ex vivo biodistribution, hypothalamus” value stood at 1.03 ± 0.11 %ID/g. In series [3] (mean ± SEM, n = 5), the “Brain ex vivo biodistribution, pre-frontal cortex (PFC)” value stood at 0.636 ± 0.06 %ID/g; the “Brain ex vivo biodistribution, striatum” value is recorded as 1.013 ± 0.11 %ID/g; the “Ex vivo biodistribution, blood” value amounted to 3.661 %ID/g; the “Ex vivo biodistribution, kidney” value turned out to be 1.986 %ID/g. For the same compound, in series [3] (mean ± SEM, n = 5), the “Ex vivo biodistribution, large intestine” value is on record as 2.18 ± 0.21 %ID/g; the “Ex vivo biodistribution, liver” value is reported as 14.33 ± 6.39 %ID/g; the “Ex vivo biodistribution, urine” value is listed as 84.43 ± 59.41 %ID/g. For the same compound, in series [3] (setting [5]), the “Ex vivo biodistribution, bile” value is listed as 250.1 ± 23.97 %ID/g; the “Ex vivo biodistribution, blood” value is reported as 3.66 ± 1.55 %ID/g; the “Ex vivo biodistribution, kidney” value came out at 1.99 ± 0.49 %ID/g; the “Ex vivo biodistribution, stomach” value was determined as 3.082 ± 0.7135 %ID/g. Further, in series [3] (n = 5), the “Ex vivo biodistribution, faeces” value is given as 3.149 %ID/g; the “Ex vivo biodistribution, heart” value amounted to 1.394 %ID/g; the “Ex vivo biodistribution, lung” value worked out at 0.5568 %ID/g; the “Ex vivo biodistribution, muscle” value came to 0.9318 %ID/g. Besides, in series [3] (n = 5), the “Ex vivo biodistribution, spleen” value came out at 1.504 %ID/g and the “Ex vivo biodistribution, whole brain” value turned out to be 0.6362 %ID/g. Further, in series [4], the “Blood–brain barrier permeation” value is reported as “permeated the blood–brain barrier” and the “Metabolization in the bloodstream” value is on record as “slow metabolization in the bloodstream”.
